# Experimental data as given in patent publication US8592629B2, “Sulfonamide derivatives as Nav 1.7 inhibitors” (Pfizer Limited, priority 2010, dated 2013).
# Target: T1, Nav1.7 (or SCN9A) channel (Homo sapiens, UniProt Q15858)
# T1 construct: expressed in transfected cells
# Assay: Nav1.7 (hSCN9A) block in HEK cells, PatchXpress 7000 automated electrophysiology, estimated IC50 (EIC50)
# Assay type: cell-based
# Conditions: PatchXpress assay; HEK cells stably transfected with hSCN9A, voltage-clamped at V1/2 of inactivation
# Method: The ability of the compounds of formula (I) to block the Nav1.7 (or SCN9A) channel were measured using the assay described below.
# Human Embryonic Kidney (HEK) cells were transfected with an hSCN9A construct using lipofectamine reagent (Invitrogen), using standard techniques. Cells stably expressing the hSCN9A constructs were identified by their resistance to G-418 (400 μg/ml). Clones were screened for expression using the whole-cell voltage-clamp technique.
# HEK cells stably transfected with hSCN9A were maintained in DMEM medium supplemented with 10% heat-inactivated fetal bovine serum and 400 μg/ml G-418 in an incubator at 37° C. with a humidified atmosphere of 10% CO2. For HTS, cells were harvested from flasks by trypsinization and replated in an appropriate multi-well plate (typically 96 or 384 wells/plate) such that confluence would be achieved within 24 hours of plating. For electrophysiological studies, cells were removed from the culture flask by brief trypsinization and re-plated at low density onto glass cover slips. Cells were typically used for electrophysiological experiments within 24 to 72 hours after plating.
# HEK cells stably transfected with hSCN9A were viewed under Hoffman contrast optics and placed in front of an array of flow pipes emitting either control or compound-containing extracellular solutions. All compounds were dissolved in dimethyl sulfoxide to make 10 mM stock solutions, which were then diluted into extracellular solution to attain the final concentrations desired. […] The voltage-dependence of inactivation was determined by applying a series of depolarizing prepulses (8 sec long in 10 mV increments) from a negative holding potential. The voltage was then immediately stepped to 0 mV to assess the magnitude of the sodium current. Currents elicited at 0 mV were plotted as a function of prepulse potential to allow estimation of the voltage at which 50% of the channels were inactivated (midpoint of inactivation or V1/2). Compounds were tested for their ability to inhibit hSCN9A sodium channels by activating the channel with a 20 msec voltage step to 0 mV following an 8 second conditioning prepulse to the empirically determined V1/2. Compound effect (% inhibition) was determined by difference in current amplitude before and after application of test compounds. For ease of comparison, “estimated IC-50” (EIC50) values were calculated from single point electrophysiology data by the following equation, (tested concentration, uM) X (100-% inhibition/% inhibition). Inhibition values <20% and >80% were excluded from the calculation.
# Electrophysiological assays were conducted with PatchXpress 7000 hardware and associated software (Molecular Devices Corp). All assay buffers and solutions were identical to those used in conventional whole-cell voltage clamp experiments described above. hSCN9A cells were grown as above to 50%-80% confluency and harvested by trypsinization. Trypsinized cells were washed and resuspended in extracellular buffer at a concentration of 1×10^6 cells/ml. The onboard liquid handling facility of the PatchXpress was used for dispensing cells and application of test compounds. Determination of the voltage midpoint of inactivation was as described for conventional whole-cell recordings. Cells were then voltage-clamped to the empirically determined V1/2 and current was activated by a 20 msec voltage step to 0 mV.
# Compounds of the Examples were tested in the assays described above and found to have the Nav1.7 EIC50 (μM) values specified in the table below. All data are derived from the PatchXpress assay unless explicitly stated otherwise.
# T1 sequence (Q15858 whole entry): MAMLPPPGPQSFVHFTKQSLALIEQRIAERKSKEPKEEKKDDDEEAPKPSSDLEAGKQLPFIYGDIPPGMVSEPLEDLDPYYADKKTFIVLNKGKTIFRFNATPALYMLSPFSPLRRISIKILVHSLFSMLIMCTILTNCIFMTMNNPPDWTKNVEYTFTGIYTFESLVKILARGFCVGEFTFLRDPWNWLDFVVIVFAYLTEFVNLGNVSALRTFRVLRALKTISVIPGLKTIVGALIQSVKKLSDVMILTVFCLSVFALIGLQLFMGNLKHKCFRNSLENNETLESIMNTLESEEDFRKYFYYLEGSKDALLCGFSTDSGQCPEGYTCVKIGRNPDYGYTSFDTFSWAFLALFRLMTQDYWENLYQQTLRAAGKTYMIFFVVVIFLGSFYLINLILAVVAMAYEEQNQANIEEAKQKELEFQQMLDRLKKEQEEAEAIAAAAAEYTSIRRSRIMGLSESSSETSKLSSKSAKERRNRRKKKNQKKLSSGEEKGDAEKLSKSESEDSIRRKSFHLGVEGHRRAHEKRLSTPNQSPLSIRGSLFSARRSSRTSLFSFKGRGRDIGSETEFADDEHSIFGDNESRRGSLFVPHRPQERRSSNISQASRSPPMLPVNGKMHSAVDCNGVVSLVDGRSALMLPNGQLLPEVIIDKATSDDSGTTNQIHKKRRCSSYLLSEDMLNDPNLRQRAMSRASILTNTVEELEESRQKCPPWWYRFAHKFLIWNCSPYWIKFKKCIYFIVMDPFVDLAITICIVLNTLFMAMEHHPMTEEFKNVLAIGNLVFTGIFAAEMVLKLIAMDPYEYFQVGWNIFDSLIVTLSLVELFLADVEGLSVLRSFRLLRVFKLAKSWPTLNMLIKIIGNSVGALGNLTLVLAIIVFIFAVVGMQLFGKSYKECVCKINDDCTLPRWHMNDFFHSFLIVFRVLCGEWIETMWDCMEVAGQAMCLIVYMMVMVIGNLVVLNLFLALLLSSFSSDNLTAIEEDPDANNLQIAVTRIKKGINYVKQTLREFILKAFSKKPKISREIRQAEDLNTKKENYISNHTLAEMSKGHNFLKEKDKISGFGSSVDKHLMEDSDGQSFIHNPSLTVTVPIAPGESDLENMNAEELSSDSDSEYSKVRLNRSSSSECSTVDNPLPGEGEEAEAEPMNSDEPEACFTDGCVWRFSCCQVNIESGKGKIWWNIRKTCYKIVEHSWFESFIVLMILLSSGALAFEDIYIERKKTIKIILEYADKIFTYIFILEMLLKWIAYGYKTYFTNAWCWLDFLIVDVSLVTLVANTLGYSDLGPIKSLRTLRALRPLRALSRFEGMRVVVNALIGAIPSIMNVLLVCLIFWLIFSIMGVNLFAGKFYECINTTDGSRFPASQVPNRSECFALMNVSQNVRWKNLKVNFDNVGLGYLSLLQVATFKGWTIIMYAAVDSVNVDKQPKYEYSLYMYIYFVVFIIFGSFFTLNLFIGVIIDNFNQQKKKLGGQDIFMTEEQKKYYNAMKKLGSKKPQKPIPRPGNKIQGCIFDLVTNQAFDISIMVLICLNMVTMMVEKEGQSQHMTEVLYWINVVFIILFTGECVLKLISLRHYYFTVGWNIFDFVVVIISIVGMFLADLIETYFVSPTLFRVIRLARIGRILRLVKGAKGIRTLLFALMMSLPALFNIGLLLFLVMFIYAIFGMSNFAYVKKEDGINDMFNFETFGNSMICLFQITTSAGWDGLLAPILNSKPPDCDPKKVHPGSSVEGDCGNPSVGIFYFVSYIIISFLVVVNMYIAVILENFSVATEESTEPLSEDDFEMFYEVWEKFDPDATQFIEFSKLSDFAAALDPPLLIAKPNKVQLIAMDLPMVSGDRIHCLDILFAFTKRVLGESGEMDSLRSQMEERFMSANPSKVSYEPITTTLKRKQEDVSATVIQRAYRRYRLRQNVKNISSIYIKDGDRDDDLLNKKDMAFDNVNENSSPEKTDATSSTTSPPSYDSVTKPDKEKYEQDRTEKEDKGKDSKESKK
row,Compound,IC50 [nM]
1,"CS(=O)(=O)NC(=O)c1cc(F)c(Oc2cnc(OCCC(F)(F)F)c(Cl)c2)cc1F [Example 62, 4-{[5-chloro-6-(3,3,3-trifluoropropoxy)pyridin-3-yl]oxy}-2,5-difluoro-N-(methylsulfonyl)benzamide]",240
2,"CC(C)(F)COc1ncc(Oc2cc(F)c(C(=O)NS(C)(=O)=O)cc2F)cc1Cl [Example 63, 4-{[5-chloro-6-(2-fluoro-2-methylpropoxy)pyridin-3-yl]oxy}-2,5-difluoro-N-(methylsulfonyl)benzamide]",160
3,"CS(=O)(=O)NC(=O)c1cc(F)c(Oc2cnc(OCC(F)(F)C(F)(F)F)c(Cl)c2)cc1F [Example 64, 4-{[5-chloro-6-(2,2,3,3,3-pentafluoropropoxy)pyridin-3-yl]oxy}-2,5-difluoro-N-(methylsulfonyl)benzamide]",28
4,"CS(=O)(=O)NC(=O)c1cc(F)c(Oc2cnc(OC3CCC(F)(F)CC3)c(Cl)c2)cc1F [Example 65, 4-({5-chloro-6-[(4,4-difluorocyclohexyl)oxy]pyridin-3-yl}oxy)-2,5-difluoro-N-(methylsulfonyl)benzamide]",650
5,"CS(=O)(=O)NC(=O)c1cc(F)c(Oc2cnc(OCC(F)F)c(Cl)c2)cc1F [Example 66, 4-{[5-chloro-6-(2,2-difluoroethoxy)pyridin-3-yl]oxy}-2,5-difluoro-N-(methylsulfonyl)benzamide]",650
6,"CN1CCC(Oc2ncc(Oc3cc(F)c(C(=O)NS(C)(=O)=O)cc3F)cc2Cl)CC1 [Example 67, 4-({5-chloro-6-[(1-methylpiperidin-4-yl)oxy]pyridin-3-yl}oxy)-2,5-difluoro-N-(methylsulfonyl)benzamide]",9900
7,"CS(=O)(=O)NC(=O)c1cc(F)c(Oc2cnc(C(F)(F)F)c(Cl)c2)cc1F [Example 68, 4-{[5-chloro-6-(trifluoromethyl)pyridin-3-yl]oxy}-2,5-difluoro-N-(methylsulfonyl)benzamide]",1800
8,"COc1cc(C(=O)NS(C)(=O)=O)ccc1Oc1cnc(OC(C)C)c(Cl)c1 [Example 69, 4-[(5-chloro-6-isopropoxypyridin-3-yl)oxy]-3-methoxy-N-(methylsulfonyl)benzamide]",250
9,"CC(C)Oc1ncc(Oc2cc(F)c(C(=O)NS(C)(=O)=O)cc2F)cc1F [Example 71, 2,5-difluoro-4-[(5-fluoro-6-isopropoxypyridin-3-yl)oxy]-N-(methylsulfonyl)benzamide]",1700
10,"COc1c(F)c(Oc2cnc(OC(C)C)c(Cl)c2)cc(F)c1C(=O)NS(C)(=O)=O [Example 72, 4-[(5-chloro-6-isopropoxypyridin-3-yl)oxy]-3,6-difluoro-2-methoxy-N-(methylsulfonyl)benzamide]",> 1000
11,"CC(C)Oc1ncc(Oc2ccc(C(=O)NS(C)(=O)=O)cc2C#N)cc1Cl [Example 73, 4-[(5-chloro-6-isopropoxypyridin-3-yl)oxy]-3-cyano-N-(methylsulfonyl)benzamide]",620
12,"CC(C)COc1ncc(Oc2ccc(C(=O)NS(C)(=O)=O)c(F)c2)cc1Cl [Example 74, 4-[(5-chloro-6-isobutoxypyridin-3-yl)oxy]-2-fluoro-N-(methylsulfonyl)benzamide]",50
13,"CC(C)(Oc1ncc(Oc2cc(F)c(C(=O)NS(C)(=O)=O)cc2Cl)cc1Cl)C(F)(F)F [Example 76, 5-chloro-4-{[5-chloro-6-(2,2,2-trifluoro-1,1-dimethylethoxy)pyridin-3-yl]oxy}-2-fluoro-N-(methylsulfonyl)benzamide]",9.4
14,"CS(=O)(=O)NC(=O)c1cc(Cl)c(Oc2cnc(OC(C(F)(F)F)C(F)(F)F)c(Cl)c2)cc1F [Example 77, 5-chloro-4-({5-chloro-6-[2,2,2-trifluoro-1-(trifluoromethyl)ethoxy]pyridin-3-yl}oxy)-2-fluoro-N-(methylsulfonyl)benzamide]",15
15,"CC(C)Nc1ncc(Oc2cc(F)c(C(=O)NS(C)(=O)=O)cc2F)cc1Cl [Example 79, 4-{[5-chloro-6-(isopropylamino)pyridin-3-yl]oxy}-2,5-difluoro-N-(methylsulfonyl)benzamide]",150
16,"CS(=O)(=O)NC(=O)c1cc(F)c(Oc2cnc(OC(CF)CF)c(Cl)c2)cc1F [Example 80, 4-({5-chloro-6-[2-fluoro-1-(fluoromethyl)ethoxy]pyridin-3-yl}oxy)-2,5-difluoro-N-(methylsulfonyl)benzamide]",1500

row,Compound,IC50 [nM]
1,"CC(C)Oc1ncc(Oc2ccc(C(=O)NS(C)(=O)=O)cc2Cl)cc1Cl [Example 82, 3-chloro-4-[(5-chloro-6-isopropoxypyridin-3-yl)oxy]-N-(methylsulfonyl)benzamide]",42
2,"COc1ncc(Oc2ccc(C(=O)NS(C)(=O)=O)cc2Cl)cc1Cl [Example 83, 3-chloro-4-[(5-chloro-6-methoxypyridin-3-yl)oxy]-N-(methylsulfonyl)benzamide]",> 10000
3,"CC(C)Oc1ncc(Oc2ccc(C(=O)NS(C)(=O)=O)cc2)cc1Cl [Example 84, 4-[(5-chloro-6-isopropoxypyridin-3-yl)oxy]-N-(methylsulfonyl)benzamide]",850
4,"COc1ncc(Oc2ccc(C(=O)NS(C)(=O)=O)cc2)cc1Cl [Example 85, 4-[(5-chloro-6-methoxypyridin-3-yl)oxy]-N-(methylsulfonyl)benzamide]",> 10000
5,"COc1cc(Oc2cnc(OC(C)C)c(Cl)c2)ccc1C(=O)NS(C)(=O)=O [Example 86, 4-[(5-chloro-6-isopropoxypyridin-3-yl)oxy]-2-methoxy-N-(methylsulfonyl)benzamide]",7200
6,"CS(=O)(=O)NC(=O)c1cc(F)c(Oc2ccc(Cl)c3cccnc23)cc1F [Example 87, 4-[(5-chloroquinolin-8-yl)oxy]-2,5-difluoro-N-(methylsulfonyl)benzamide]",> 3000
7,"CS(=O)(=O)NC(=O)c1cc(F)c(Oc2cc(Cl)cc3cccnc23)cc1F [Example 88, 4-[(6-chloroquinolin-8-yl)oxy]-2,5-difluoro-N-(methylsulfonyl)benzamide]",> 3000
8,"COc1ccncc1Oc1cc(F)c(C(=O)NS(C)(=O)=O)cc1F [Example 89, 2,5-difluoro-4-(4-methoxypyridin-3-yloxy)-N-(methylsulfonyl)benzamide]",> 3000
9,"CS(=O)(=O)NC(=O)c1cc(F)c(Oc2cccn3ccnc23)cc1F [Example 90, 2,5-difluoro-4-(imidazo[1,2-a]pyridin-8-yloxy)-N-(methylsulfonyl)benzamide]",> 3000
10,"CS(=O)(=O)NC(=O)c1cc(Cl)c(Oc2cnc(C3CC3)c(Cl)c2)cc1Cl [Example 91, 2,5-Dichloro-4-(5-chloro-6-cyclopropylpyridin-3-yloxy)-N-(methylsulfonyl)benzamide]",680
11,"O=C(NS(=O)(=O)C1CC1)c1cc(Cl)c(Oc2cnc(C3CC3)c(Cl)c2)cc1F [Example 92, 5-chloro-4-(5-chloro-6-cyclopropylpyridin-3-yloxy)-N-(cyclopropylsulfonyl)-2-fluorobenzamide]",50
12,"CS(=O)(=O)NC(=O)c1cc(Cl)c(Cc2cnc(C3CC3)c(Cl)c2)cc1F [Example 93, 5-chloro-4-((5-chloro-6-cyclopropylpyridin-3-yl)methyl)-2-fluoro-N-(methylsulfonyl)benzamide]",470
13,"CC(C)Oc1ncc(Sc2cc(F)c(C(=O)NS(C)(=O)=O)cc2Cl)cc1Cl [Example 94, 5-chloro-4-[(5-chloro-6-isopropoxypyridin-3-yl)thio]-2-fluoro-N-(methylsulfonyl)benzamide]",830
14,"CS(=O)(=O)NC(=O)c1cc(Cl)c(Oc2cnc(N3CCC(F)(F)C3)c(Cl)c2)cc1F [Example 95, 5-chloro-4-(5-chloro-6-(3,3-difluoropyrrolidin-1-yl)pyridin-3-yloxy)-2-fluoro-N-(methylsulfonyl)benzamide]",37
15,"CS(=O)(=O)NC(=O)c1cc(Cl)c(Oc2cnc(N3CC(F)(F)C3)c(Cl)c2)cc1F [Example 96, 5-Chloro-4-(5-chloro-6-(3,3-difluoroazetidin-1-yl)pyridin-3-yloxy)-2-fluoro-N-(methylsulfonyl)benzamide]",73
